Key:
IgG = experiment: Determination of IgG (Igs other than IgE) produced in in vitro culture of spleen cells from DNP-As immunized mice (ELISA); format: cell-based, BALB/c mice; settings: Mus musculus, 96 h, 4 days culture, 37° C.; for inhibition at 20 µg/mL: 20 μg/ml; for inhibition at 10 µg/mL: 10 μg/ml
Experimental: (§1) And the inhibitory activities of the quinolizinone derivative of formula (I) are further confirmed by the determination of serum concentrations of Igs in BALB/c mice which are immunized by DNP-As according to a procedure described in Immunology, Vol 21, pp 11-12, 1971.
(§2) BALB/c mice were immunized intraperitoneally with 5 μg of DNP-As adsorbed on 4 mg aluminum hydroxide gel Four weeks after the immunization,the spleens were excised from the mice and 5×10^7 spleen cells were transferred intravenously into the recipient mice which had been exposed to 600 rad of X-ray irradiation. Immediately after cell transfer, the recipients were then immunized intraperitoneally with 5 μg of DNP-As adsorbed on 4 mg aluminum hydroxide gel to induce adoptive secondary immune response. Further 4 weeks after the immunization of recipients, the spleens were excised from them and the spleen cell suspensions containing 5×10^6 cells/ml were cultured with or without a compound to be tested in 96-well micro-titer plates at 37° C. for 4 days. IgE and IgG secreted into the culture supernatant was each determined correspondingly by ELISA and the inhibitory effect was calculated according to the following equation. [formula]

IgE = experiment: Determination of IgE produced in in vitro culture of spleen cells from DNP-As immunized mice (ELISA); format: cell-based, BALB/c mice; settings: Mus musculus, 96 h, 4 days culture, 37° C.; for inhibition at 20 µg/mL: 20 μg/ml; for inhibition at 10 µg/mL: 10 μg/ml
Experimental: as §1, §2

Row | Structure (SMILES) | inhibition at 20 µg/mL (IgG) | inhibition at 20 µg/mL (IgE) | inhibition at 10 µg/mL (IgG) | inhibition at 10 µg/mL (IgE)
1 | CCOC(=O)c1c(NCc2ccccn2)c(C#N)c(=O)n2ccccc12 [S-1, 3-Cyano-1-ethoxycarbonyl-2-(2-pyridylmethylamino)-4H-quinolizin-4-one] | 13% | 60% |  | 
2 | CCOC(=O)c1c(NCc2cccnc2)c(C#N)c(=O)n2ccccc12 [S-6, 3-Cyano-1-ethoxycarbonyl-2-(3-pyridylmethylamino)-4H-quinolizin-4-one] | 16% | 68% |  | 
3 | CCOC(=O)c1c(NCc2cnccn2)c(C#N)c(=O)n2ccccc12 [S-14, 3-Cyano-1-ethoxycarbonyl-2-pyrazinylmethylamino-4H-quinolizin-4-one] |  |  | 1% | 72%
4 | CCOC(=O)c1c(NCc2nccnc2C)c(C#N)c(=O)n2ccccc12 [S-15, 3-Cyano-1-ethoxycarbonyl-2-(3-methylpyrazinyl)methylamino-4H-quinolizin-4-one] |  |  | 3% | 73%
5 | CCOC(=O)c1c(NCc2cnc(C)cn2)c(C#N)c(=O)n2ccccc12 [S-16, 3-Cyano-1-ethoxycarbonyl-2-(5-methylpyrazinyl)-methylamino-4H-quinolizin-4-one] | 7% | 68% |  | 
6 | CCOC(=O)c1c(NCc2cncc(C)n2)c(C#N)c(=O)n2ccccc12 [S-17, 3-Cyano-1-ethoxycarbonyl-2-(6-methylpyrazinyl)-methylamino-4H-quinolizin-4-one] |  |  | 12% | 68%

From patent US4935425A, “4H-quinolizin-4-ones for treatment of diseases associated with immunoglobulin e-antibody formation” (Kissei Pharmaceutical Co., Ltd., priority 1987, dated 1990)
